Laboratory results from US6967196B1, “Sulfonamide compounds and uses thereof” (Bristol-Myers Squibb Company, priority 1999, dated 2005).
Where a name gives a salt, the structure may show the parent alone. Read-outs that look alike come from different tables or passages of the source.

Tested on: amyloid β production in transfected H4 (human neuroglioma) cells stably expressing APP constructs
Assay: In vitro cell-based assay of inhibitors of amyloid β production (ELISA)
In short: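 Transfected H4 cells stably expressing wild-type or variant APP were exposed to compounds (initial screen 10-100 μM) for about 16 h. Secreted Aβ in the medium was quantified by sandwich ELISA (C-terminal-specific monoclonal capture, N-terminal-specific polyclonal detection) against an Aβ standard curve; dose-response runs followed for actives.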

[1] = transfected H4 cells stably expressing APP, approx. 16 h incubation, amyloid β in medium by ELISA, read-out: ACTIVITY (IC50, inhibition of amyloid β production)
[2] = transfected H4 cells stably expressing APP, approximately 16 hours incubation, amyloid β in medium by ELISA, Table B, read-out: ACTIVITY (IC50, inhibition of amyloid β production)
[3] = Homo sapiens, 16 h, transfected H4 cells stably expressing APP, approx. 16 h incubation, amyloid β in medium by ELISA, read-out: ACTIVITY (IC50, inhibition of amyloid β production)
[4] = transfected H4 cells stably expressing APP constructs, approximately 16 hours incubation, amyloid β in medium by ELISA, read-out: ACTIVITY (IC50, inhibition of amyloid β production)
[5] = Homo sapiens, 16 h, transfected H4 cells stably expressing APP, approximately 16 hours incubation, amyloid β in medium by ELISA, read-out: ACTIVITY (IC50, inhibition of amyloid β production)
[6] = Homo sapiens, 16 h, transfected H4 cells expressing APP, approximately 16 hours incubation, amyloid β in medium by ELISA, read-out: ACTIVITY (IC50, inhibition of amyloid β production)
[7] = transfected H4 cells stably expressing APP, approximately 16 hours incubation, amyloid β in medium by ELISA, read-out: ACTIVITY (IC50, inhibition of amyloid β production)
[8] = Homo sapiens, 16 h, transfected H4 cells stably expressing APP constructs, approximately 16 hours incubation, amyloid β in medium by ELISA, read-out: ACTIVITY (IC50, inhibition of amyloid β production)
[9] = Table B, transfected H4 cells stably expressing APP, approximately 16 hours incubation, amyloid β in medium by ELISA, read-out: ACTIVITY (inhibitory concentration IC50, inhibition of amyloid β production)

N-{3-[2-(1-{[(4-chlorophenyl)sulfonyl]-2,5-difluoroanilino}ethyl)phenoxy]propyl}-2,5-difluoro-N-methylbenzamide [Example 727]
IC50 [1]: 100 to 500 nM

CC(c1ccccc1OCCCN(C)S(=O)(=O)c1cccc(C(F)(F)F)c1)N(c1cc(F)ccc1F)S(=O)(=O)c1ccc(Cl)cc1 (stereo not drawn) [Example 788, N-{3-[2-(1-{[(4-chlorophenyl)sulfonyl]-2,5-difluoroanilino}ethyl)phenoxy]propyl}-N-methyl-3-(trifluoromethyl)benzenesulfonamide]
IC50 [1]: 100 to 500 nM

2-((1R)-1-{[(4-chlorophenyl)sulfonyl]-2,5-difluoroanilino}ethyl)benzyl 4-fluorobenzylcarbamate [Example 748]
IC50 [1]: 100 to 500 nM

O=S(=O)(c1ccc(Cl)cc1)N(Cc1ncccc1OCCCN1CCCCC1)c1cc(F)ccc1F [Example 233, 4-Chloro-N-(2,5-difluorophenyl)-N-({3-[3-(1-piperidinyl)propoxy]-2-pyridinyl}methyl)benzenesulfonamide Hydrochloride]
IC50 (read-out: ACTIVITY (inhibitory concentration IC50, inhibition of amyloid β production)): 25 to 50 nM

C[C@H](c1ccccc1OCCCN(C)C(=O)c1cccnc1)N(c1cc(F)ccc1F)S(=O)(=O)c1ccc(Cl)cc1 [Example 363, N-{3-[2-((1R)-1-{[(4-chlorophenyl)sulfonyl]-2,5-difluoroanilino}ethyl)phenoxy]propyl}-N-methylnicotinamide Hydrochloride]
IC50 [2]: 50 to 100 nM

O=C(c1cccc(F)c1)N1CCCCC1CCOc1ccccc1CN(c1cc(F)ccc1F)S(=O)(=O)c1ccc(Cl)cc1 (stereo not drawn) [Example 661, 4-chloro-N-(2,5-difluorophenyl)-N-(2-{2-[1-(3-fluorobenzoyl)-2-piperidinyl]ethoxy}benzyl)benzenesulfonamide]
IC50 [3]: 100 to 500 nM

CSC1CCCN(CC[C@@H](C)N(c2cc(Cl)ccc2Cl)S(=O)(=O)c2ccc(Cl)cc2)C1 (stereo partly drawn) [Example 1159]
IC50 [4]: > 500 nM

O=S(=O)(c1ccc(Cl)cc1)N(Cc1ccccc1O)c1ccccc1 [Example 1081, 4-chloro-N-(2-hydroxybenzyl)-N-phenylbenzenesulfonamide]
IC50 [5]: > 10000 nM

methyl [[2-((1R)-1-{[(4-chlorophenyl)sulfonyl]-2,5-difluoroanilino}ethyl)benzyl]- [Example 798]
IC50 [1]: 100 to 500 nM

C[C@H](C(=O)NC1CCCCC1)N(c1cc(Cl)ccc1F)S(=O)(=O)c1ccc(Cl)cc1 [Example 1308]
IC50 [6]: 100 to 500 nM

3-chloro-N-{3-[2-(1-{[(4-chlorophenyl)sulfonyl]-2,5-difluoroanilino}ethyl)phenoxy]propyl}-N-methylbenzamide [Example 688]
IC50 [1]: 100 to 500 nM

C[C@H](c1ccc(F)cc1COCc1cccnc1)N(c1cc(F)ccc1F)S(=O)(=O)c1ccc(Cl)cc1 [Example 380, 4-chloro-N-(2,5-difluorophenyl)-N-((1R)-1-{4-fluoro-2-[(3-pyridinylmethoxy)methyl]phenyl}ethyl)benzenesulfonamide]
IC50 (Homo sapiens, 16 h, transfected H4 cells stably expressing APP, approximately 16 hours incubation, amyloid β in medium by ELISA, Table B, read-out: ACTIVITY (IC50, inhibition of amyloid β production)): 50 to 100 nM

C[C@H](C(=O)NC[C@@H]1CC[C@H]2C[C@@H]1C2(C)C)N(c1cc(Cl)ccc1F)S(=O)(=O)c1ccc(Cl)cc1 [Example 1323]
IC50 [6]: > 500 nM

O=S(=O)(c1ccc(Cl)cc1)N(Cc1ccccc1Cn1ccnc1)c1cc(F)ccc1F [Example 772, 4-chloro-N-(2,5-difluorophenyl)-N-[2-(1H-imidazol-1-ylmethyl)benzyl]benzenesulfonamide]
IC50 [3]: 100 to 500 nM

N-{2-[2-(1-{[(4-chlorophenyl)sulfonyl]-2,5-difluoroanilino}ethyl)phenoxy]ethyl}-N-methyltetradecanamide [Example 854]
IC50 [7]: 100 to 500 nM

2-((1R)-1-{[(4-chlorophenyl)sulfonyl]-2,5-difluoroanilino}ethyl)benzyl 2-phenylpropylcarbamate [Example 799]
IC50 [1]: 100 to 500 nM

C[C@H](CCCS(=O)(=O)O)N(c1cc(Cl)ccc1Cl)S(=O)(=O)c1ccc(Cl)cc1 [Example 1194, (4R)-4-[N-[2,5-dichlorophenyl][(4-chlorophenyl)sulfonyl]amino]pentylsulfonic acid]
IC50 [8]: 100 to 500 nM

CC(C)(C)OC(=O)N1CCN(CCCOc2ccccc2CN(c2ccccc2)S(=O)(=O)c2ccc(Cl)cc2)CC1 [Example 288, Tert-butyl 4-{3-[2-({[(4 chlorophenyl)sulfonyl}anilino}methyl)phenoxy]propyl}-1-piperazinecarboxylate]
IC50 [2]: 25 to 50 nM

N-{3-[2-({[(4-chlorophenyl)sulfonyl]-2,5-difluoroanilino}methyl)phenoxy]propyl}-N-methyl-3-(trifluoromethyl)benzamide [Example 891]
IC50 [7]: > 500 nM

O=S(=O)(c1ccc(Cl)cc1)N(Cc1ccccc1OCc1cccnc1)c1ccccc1 [Example 1091, 4-chloro-N-phenyl-N-[2-(3-pyridinylmethoxy)benzyl]benzenesulfonamide hydrochloride]
IC50 [8]: > 10000 nM

C[C@H](O)CCCC(=O)OC(C)(C)C [Example 34, 1,1-Dimethylethyl (5S)-5-hydroxyhexanoate]
IC50 [9]: ≤ 25 nM

CC(c1ccccc1OCCCn1ccnc1)N(c1cc(F)ccc1F)S(=O)(=O)c1ccc(Cl)cc1 (stereo not drawn) [Example 321, 4-Chloro-N-(2,5-difluorophenyl)-N-1-{2-[3-(1H-imidazol-1-yl)propoxy]phenyl}ethyl)benzenesulfonamide Hydrochloride]
IC50 [2]: 50 to 100 nM

C=CCOc1ccccc1CN(c1ccccc1)S(=O)(=O)c1ccc(Cl)cc1 [Example 1001, N-[2-(allyloxy)benzyl]-4-chloro-N-phenylbenzenesulfonamide]
IC50 [5]: > 500 nM

C[C@H](CCCC(=O)OC(C)(C)C)N(c1cc(Cl)ccc1Cl)S(=O)(=O)c1ccc(Cl)cc1 [Example 35, 1,1-dimethylethyl(5R)-5-[(2,5-dichlorophenyl)-[(4-chlorophenyl)sulfonyl]-amino]hexanoate]
IC50 [9]: ≤ 25 nM

CC[S+]([O-])CCCC[C@@H](C)N(c1cc(Cl)ccc1Cl)S(=O)(=O)c1ccc(Cl)cc1 (stereo partly drawn) [Example 1173, 4-chloro-N-[2,5-dichlorophenyl]-N-[1(R)-methyl-(5-ethylsulfinyl)pentyl]benzenesulfonamide]
IC50 [4]: ≤ 25 nM

4-[2-({[(2-nitrophenyl)sulfonyl]anilino}methyl)phenyl]butanoic acid [Example 1097]
IC50 [4]: > 10000 nM

S-ethyl 4-[2-(1-{[(4-chlorophenyl)sulfonyl]-2,5-difluoroanilino}ethyl)phenoxy]butyl(ethyl)thiocarbamate [Example 790]
IC50 [1]: 100 to 500 nM

COC(=O)C[S+]([O-])CC[C@@H](C)N(c1cc(Cl)ccc1Cl)S(=O)(=O)c1ccc(Cl)cc1 (stereo partly drawn) [Example 1193, methyl(6R)-6-[(2,5-dichlorophenyl)-[(4-chlorophenyl)sulfonyl]-amino]-3-thioheptanoic acid, 3-oxide]
IC50 [4]: 100 to 500 nM

CC(C)SCCC[C@@H](C)N(c1cc(Cl)ccc1CO)S(=O)(=O)c1ccc(Cl)cc1 [Example 1223]
IC50 [4]: ≤ 25 nM

CC(C)C(CO)NC(=O)[C@@H](C)N(c1cc(Cl)ccc1F)S(=O)(=O)c1ccc(Cl)cc1 (stereo partly drawn) [Example 1349]
IC50 [6]: 100 to 500 nM

C[C@H](CCCCN1CCC(S(C)(=O)=O)C1)N(c1cc(Cl)ccc1Cl)S(=O)(=O)c1ccc(Cl)cc1 (stereo partly drawn) [Example 1112, 4-chloro-N-(2,5-dichlorophenyl)-N-[5-[(3-methylsulfonyl)-1-pyrrolidinyl]-1(R)-methylpentyl]benzenesulfonamide]
IC50 [4]: 25 to 50 nM

O=S(=O)(c1ccc(Cl)cc1)N(Cc1ccccc1OCCSC1CCCCC1)c1cc(F)ccc1F [Example 850, 4-chloro-N-{2-[2-(cyclohexylsulfanyl)ethoxy]benzyl}-N-(2,5-difluorophenyl)benzenesulfonamide]
IC50 [5]: 100 to 500 nM

CCNC(=O)OCC(C)N(c1cc(Cl)ccc1CO)S(=O)(=O)c1ccc(Cl)cc1 (stereo not drawn) [Example 1279]
IC50 [6]: ≤ 25 nM

O=S(=O)(c1ccc(Cl)cc1)N(Cc1cccnc1)Cc1ccccc1OCCCN1CCCCC1 [Example 945, 4-chloro-N-{2-[3-(1-piperidinyl)propoxy]benzyl}-N-(3-pyridinylmethyl)benzenesulfonamide hydrochloride]
IC50 [5]: > 500 nM

methyl(6R)-6-[(2,5-dichlorophenyl)-[(4-chlorophenyl)sulfonyl]-amino]-3-thioheptanoic [Example 1185]
IC50 [4]: 25 to 50 nM

C[C@H](CCCS(=O)(=O)N(C)C1CCCC1)N(c1cc(Cl)ccc1Cl)S(=O)(=O)c1ccc(Cl)cc1 [Example 1215, 4-chloro-N-[2,5-dichlorophenyl]-N-[4-[[(N-cyclopentyl)methylamino]sulfonyl]-1(R)-methylbutyl]benzenesulfonamide]
IC50 [4]: 25 to 50 nM
